Reference: patent publication US10675293B2, “Nucleoside agents for the reduction of the deleterious activity of extended nucleotide repeat containing genes” (The Board of Trustees of the Leland Stanford Junior …, priority 2015, dated 2020)
“Also recorded” adds a separate entry of the source.

Legend:
mutant Htt gene = experiment: RT-PCR of Htt mRNA in Hdh Q111/Q111 striatal cells; format: cell-based, mouse; conditions: compared to mock control
Procedure: (§1) Tet-on HeLa cells (Clontech Laboratories), and stable line 2-PN4 and 21-VS were cultured in DMEM (Gibco) supplemented with 10% Tet-off fetal bovine serum (Gibco) at 37° C. with 5% CO2. Hdh Q7/Q7 (mouse), Hdh Q111/Q111 (mouse) were cultured in DMEM (HyClone) supplemented with 10% fetal bovine serum at 33° C. with 5% C02.
(§2) Total RNA was extracted from murine neuronal cells using TRI Reagent (Sigma). For cDNA conversion, 2 μg of total RNA was mixed with 5 μM random primer, 5 μM SnRNA U6 rt-PCR primer and 500 μM dNTPs, incubated at 65° C. for 5 min and then chilled on ice. After addition of First-Strand Buffer, DTT (Cf=10 mM) and 1 μl reverse transcriptase (Invitrogen), the reaction was carried out at 42° C. for 1 hr. Equal volumes of cDNA products were PCR amplified and resolved on 2.5% agarose gels to determine the abundance of Htt transcripts after normalization with U6 or 18S ribosomal RNA.

wild-type Htt gene = experiment: RT-PCR of Htt mRNA in Hdh Q7/Q7 striatal cells; format: cell-based, mouse; conditions: compared to mock control
Procedure: as §1, §2

[1] = biological target: T1, Supt4h-YC / NGN-YN complex (Homo sapiens, UniProt O00267+P63272); experiment: Co-immunoprecipitation of HA-Supt4h-YC with Flag-NGN-YN from 2-PN4 cells; format: cell-based; conditions: 20 μM, 36 hr, immunoprecipitation with anti-HA
T1 construct: NGN-YN is a genetic engineered protein in which Supt5h NGN domain is fused to YFP YN; expressed in transfected cells
Procedure: 2-PN4 cells, following a treatment of 6CR (Cf=20 μM) for 36 hr, were lysed with modified RIPA buffer (50 mM Tris-HCl [pH 7.5], 150 mM NaCl, 1% NP-40, 1% sodium deoxycholate), supplement with 1 mM Na3VO4, 1 mM DTT, 1 mM PMSF and protease inhibitor cocktail (Sigma). The collected protein lysates (1 mg) were diluted with modified RIPA buffer to a final volume of 0.5 ml and then incubated with anti-HA antibodies (1 μg) overnight. Following incubation with protein A agarose beads (Millipore) for another 6 hr, the beads were washed twice with modified RIPA buffer containing 20 μM 6CR. All of these performances were carried out at 4° C. For detection of proteins that coprecipitated with HA-Supt4h-YC, the immunocomplex was fractionated by SDS-PAGE, followed by Western blotting analysis with anti-HA and anti-FLAG antibodies.

21-VS cells (HA-Venus) = experiment: Control fluorescence of 21-VS stable cells expressing intact Venus; format: cell-based; conditions: same experimental conditions as 2-PN4 cells
Procedure: The HA-Supt4h-YC and FLAG-NGN-YN fragments were amplified by PCR using plasmid constructs described above and sub-cloned individually into the pTRE-tight-BI vector (Clontech Laboratories), which contain a bi-directional CMV promoter under the control of tetracycline. The coding sequence of yellow fluorescence protein Venus with a HA-epitope in its N-terminus was PCR-amplified and cloned into the vector to generate pTRE-HA-Venus.
Tet-on HeLa cells were transfected with linearized pTRE-HA-Supt4h-VC-Flag-NGN-VN plasmid construct using LipofectAMINE 2000 (Invitrogen). After transfection, cells were cultured initially in growth medium containing puromycin (1 μg/ml) and then selected for clones that show YFP fluorescence in the presence of tetracycline (4 μg/ml). The stable line having the strongest fluorescence signal was isolated and designated as 2-PN4. […]
Stable lines 2-PN4 and 21-VS were pre-cultured in 6-well plates, followed by an incubation of Doxycycline (4 μg/ml) together with various concentrations of chemical compounds for 24 hr. Cells were washed with PBS (Sigma) and monitored by microscope (20× magnification). Photos were taken using Nikon D500 camera with a setting of ISO 1600, shutter 1/200 for the light images, and shutter ½ for the fluorescence images. […] The average of overall fluorescence signal was determined and compared to the one observed in DMSO-treated control sample. […]

[2] = test system: Supt4h-YC and NGN-YN protein expression; experiment: Western blot of Supt4h-YC and NGN-YN protein levels in 2-PN4 cells; format: cell-based, human
Procedure: As described (Liu et al., “Spt4 is selectively required for transcription of extended trinucleotide repeats,” Cell (2012) 148:690-701), equal amounts of protein were resolved by electrophoresis on 12% sodium dodecyl sulfate (SDS)-polyacrylamide gels, and transferred onto nitrocellulose membranes (nitrocellulose, Waterman 0.45 μM, NBA085C). After blocking with 5% low-fat milk in Tris-buffer saline containing 0.1% Tween-20, membranes were probed with primary antibodies, incubated with a horseradish peroxidase (HRP)-conjugated secondary antibody, and detected by ECL reagent (enhanced chemiluminescence, PerkinElmer).

[3] = biological target: T2, Supt4h-YC / Supt5h NGN-YN interaction (Homo sapiens, UniProt O00267+P63272); experiment: Bimolecular fluorescence complementation (BiFC) assay in 2-PN4 stable cells; format: cell-based; conditions: 24 hr with Doxycycline 4 μg/ml
T2 construct: NGN-YN is a genetic engineered protein in which Supt5h NGN domain is fused to YFP YN; expressed in transfected cells
Procedure: Human Supt4h and Supt5hNGN were fused in-frame with the YC and YN respectively. The YN and YC represent the N- and C-terminal domain of yellow fluorescent protein Venus. To prevent a change in protein folding caused by the conjugation of two polypeptides (Kerppola, “Design and implementation of bimolecular fluorescence complementation (BiFC) assays for the visualization of protein interactions in living cells,” Nature protocols (2006) 1:1278-1286), a protein linker containing additional 10 amino acid residues was included in the fusion protein. Also, extra amino acids GSHM were incorporated into the Supt5hNGN to increase its protein stability (Wenzel et al., “Crystal structure of the human transcription elongation factor DSIF hSpt4 subunit in complex with the hSpt5 dimerization interface,” The Biochemical journal (2010) 425:373-380). Supt4h, NGN, YC, and YN were amplified by PCR to generate DNA fragments containing the nucleotide sequence of protein linker. Supt4h and NGN PCR products then were mixed with the PCR product of YN or YC for secondary overlapping PCR. Finally, the resulting Supt4h-YC and NGN-YN DNA fragment was cloned into plasmid vector pcDNA3-HA and pFLAG-CMV-2 respectively.
Tet-on HeLa cells were transfected with linearized pTRE-HA-Supt4h-VC-Flag-NGN-VN plasmid construct using LipofectAMINE 2000 (Invitrogen). After transfection, cells were cultured initially in growth medium containing puromycin (1 μg/ml) and then selected for clones that show YFP fluorescence in the presence of tetracycline (4 μg/ml). The stable line having the strongest fluorescence signal was isolated and designated as 2-PN4. Likewise, 21-VS stable line was created using pTRE-HA-Venus.
Stable lines 2-PN4 and 21-VS were pre-cultured in 6-well plates, followed by an incubation of Doxycycline (4 μg/ml) together with various concentrations of chemical compounds for 24 hr. Cells were washed with PBS (Sigma) and monitored by microscope (20× magnification). Photos were taken using Nikon D500 camera with a setting of ISO 1600, shutter 1/200 for the light images, and shutter ½ for the fluorescence images. For quantification of fluorescence intensity, 5 photos with similar cell number were taken and the fluorescence signal was measured by Metamorph software individually. The average of overall fluorescence signal was determined and compared to the one observed in DMSO-treated control sample.
For the purpose of high-throughput drug screening, based on the BiFC method as mentioned above, we have created a stable cell line that co-expresses NGN-YN and Supt4h-YC under the control of a tet-on inducible promoter. […] If the complementation that is driven by NGN and Supt4h interaction is inhibited by a given test compound, the de novo YFP fluorescence signal is affected. […]

total Huntingtin protein = experiment: Western blot of total HTT in Huntington's disease patient iPSC ND36999; format: cell-based, human; conditions: iPSC with 180 CAG repeats, 24 hr
Procedure: (§3) Cell samples were lysed in 30 mM Tris-HCl, pH 8.0, 5 mM NaCl, 0.1% Triton X-100 for 10 min on ice. The supernatants from spinning (14 k rpm for 10 min) were collected. The protein concentrations were determined by BCA assay (Pierce, ThermoFisher). Equal amounts of protein were loaded onto 4-12% gel. After electrophoresis, the gels were transferred to nitrocellulose membranes by wet transfer at 35V for 16 hr. The protein level of mutant HTT, total HTT and tubulin were determined by immunoblotting with anti-poly Glutamine (MAB1574 from Millipore), anti-Huntingtin protein (MAB2166 from Millipore) and anti-alpha tubulin (AJ1034a from ABGENT). Blots were imaged on a Li-Cor Odyssey infrared imager. The bands intensities were determined by Li-Cor Odyssey software.
(§4) To test whether the nucleoside 6-Azauridine (HD101) and (−)-6-Azauridine 2′,3′,5′-triacetate (HD106) can affect the expression of proteins with long polyQ domains, one iPSC (induced pluripotent stem cell) line ND36999, which was derived from a Huntington's disease patient who carries one allele of mutant htt gene with 180 CAG repeats, was purchased from the Coriell Institute. The iPSCs were plated into a 24-well plate coated with Matrigel. […] Cells were lysed and the protein concentrations were determined by BCA assay. […] The image (FIG. 10) was taken and the quantification was made by Li-Cor Odyssey imaging system.

[4] = test system: mutant Huntingtin protein; experiment: Western blot of mutant HTT in Huntington's disease patient iPSC ND36999; format: cell-based, human; conditions: iPSC with 180 CAG repeats, 24 hr
Procedure: as §3, §4

| Structure (SMILES) | Htt mRNA transcribed from mutant allele (mutant Htt gene) | Htt mRNA in cells with homozygous wild-type Htt allele (wild-type Htt gene) | complex formation of Supt4h-YC and NGN-YN [1] | fluorescence signal of 21-VS cells (21-VS cells (HA-Venus)) | protein expression of Supt4h-YC and NGN-YN [2] | fluorescence intensity of 2-PN4 cells relative to control sample ([3]; 10 μM) | BiFC fluorescence signal of 2-PN4 cells ([3]; various concentrations) | total Huntingtin protein expression level (total Huntingtin protein) | mutant Huntingtin protein level [4] |
| --- | --- | --- | --- | --- | --- | --- | --- | --- | --- |
| OC[C@H]1O[C@@H](n2cnc3c(Cl)ncnc32)C(O)C1O (stereo partly drawn) [6CR, 6-Chloropurine riboside] | down-regulated; also recorded: reduces the expression of mutant Htt gene | not detectable | lower the complex formation | not altered | does not interfere with the protein expression | decreased to half of control sample | reduces the fluorescence signal of 2-PN4 cells in a concentration-dependent manner; also recorded: inhibits Supt4h-YC and NGN-YN interaction |  |  |
| CC(=O)OC[C@H]1O[C@@H](n2ncc(=O)[nH]c2=O)[C@H](OC(C)=O)[C@@H]1OC(C)=O [HD106, (−)—6-Azauridine 2′,3′,5′-Triacetate] |  |  |  |  |  |  |  | little effect | preferentially decrease mutant Huntingtin protein in a dose dependent manner; also recorded: reduced mutant huntingtin expression in a dose dependent manner |
